Measurements published in patent US9297813B2, “Targeting metabolic enzymes in human cancer” (Agency for Science, Technology and Research, priority 2010, dated 2016).

Legend:
A549 cells [1] = assay: Soft agar colony formation, sarcosine rescue after GLDC knockdown; assay type: cell-based, human; conditions: 10 μM sarcosine
Method: (F) Effects of sarcosine on soft agar colony formation after GLDC knockdown in A549 cells. 1000 cells were seeded in soft agar at clonal density and exposed to 10 μM sarcosine for 14 days.
Soft agar assays were conducted as described previously (Viswanathan et al., 2009). We stained colonies with 1% INT and counted them after 3-4 weeks of growth. For sarcosine rescue experiment, 10 μM of sarcosine (sigma) or PBS were added to top cells layer of agar and growth medium containing sarcosine were changed every 3 days before counting colonies.

A549 cells [2] = assay: Soft agar colony formation with methotrexate, A549 cells with GLDC knockdown; assay type: cell-based, human; conditions: methotrexate in combination with GLDC shRNA versus either alone, 14 days
HLF cells = assay: Adherent colony formation with methotrexate, HLF cells overexpressing GLDC; assay type: cell-based, human; conditions: low doses of methotrexate
Method: (§1) (E) Effects of the anti-folate drug methotrexate on colony formation after GLDC overexpression or knockdown. 3T3 and HLF cells overexpressing GLDC were plated at clonal density and exposed to varying concentrations of methotrexate for 8 days. A549 cells with GLDC knockdown were plated in soft agar at clonal density and exposed to varying concentrations of methotrexate for 14 days.
(§2) Adherent colony formation was performed by seeding 200-3000 single cells into 10 cm-culture dish and maintained for 10-14 days in DMEM/10% FBS. Colonies were stained by Wright-Giemsa and those colonies containing more than 50 cells were counted. For methotrexate (Sigma) treatment assay, cells were maintained in growth medium containing serial dilution of methotrexate (0, 0.1, 0.2, 0.5, 1, 2, 5, 10, 20 uM) and fresh medium were changed every 3 days.

3T3 cells = assay: Adherent colony formation with methotrexate, 3T3 cells overexpressing GLDC; assay type: cell-based, mouse; conditions: low doses of methotrexate
Method: as §1, §2

GLDC [3] = biological target: T1, GLDC (Homo sapiens, UniProt P23378); conditions: cited from earlier work
T1 sequence (P23378 36-1020): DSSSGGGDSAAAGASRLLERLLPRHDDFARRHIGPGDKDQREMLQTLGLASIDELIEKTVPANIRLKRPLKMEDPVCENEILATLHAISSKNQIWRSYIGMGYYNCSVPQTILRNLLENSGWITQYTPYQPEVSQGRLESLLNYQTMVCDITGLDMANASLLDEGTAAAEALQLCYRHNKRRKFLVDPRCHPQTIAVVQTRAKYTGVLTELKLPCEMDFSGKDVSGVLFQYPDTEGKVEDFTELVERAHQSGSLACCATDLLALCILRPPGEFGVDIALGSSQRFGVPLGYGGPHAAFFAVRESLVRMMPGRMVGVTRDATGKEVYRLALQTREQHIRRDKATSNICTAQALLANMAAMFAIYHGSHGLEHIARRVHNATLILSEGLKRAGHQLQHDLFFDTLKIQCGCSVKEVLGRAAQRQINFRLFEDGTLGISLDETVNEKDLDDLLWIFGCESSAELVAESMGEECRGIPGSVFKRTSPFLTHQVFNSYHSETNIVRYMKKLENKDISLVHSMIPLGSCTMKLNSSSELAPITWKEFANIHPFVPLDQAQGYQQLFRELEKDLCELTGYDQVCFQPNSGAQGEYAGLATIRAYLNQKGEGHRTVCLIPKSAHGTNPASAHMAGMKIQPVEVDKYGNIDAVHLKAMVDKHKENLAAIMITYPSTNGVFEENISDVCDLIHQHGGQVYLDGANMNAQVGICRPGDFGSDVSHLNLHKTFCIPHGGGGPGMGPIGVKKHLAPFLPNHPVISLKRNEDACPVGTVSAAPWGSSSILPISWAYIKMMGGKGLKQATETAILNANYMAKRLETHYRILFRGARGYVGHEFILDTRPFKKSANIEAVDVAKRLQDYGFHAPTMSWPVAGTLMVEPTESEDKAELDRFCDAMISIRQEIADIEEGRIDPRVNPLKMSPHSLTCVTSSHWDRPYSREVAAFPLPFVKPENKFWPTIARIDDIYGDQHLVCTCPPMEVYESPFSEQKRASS

[4] = system: cytoplasmic and mitochondrial aspartate aminotransferase; conditions: cited from earlier work
GLDC [5] = biological target: T1, GLDC; assay: Victorin: inhibition of GLDC expression, tumour formation and cell proliferation (no method given)

CNCC(=O)O [sarcosine, N-methylglycine]
rescue of proliferation defect upon GLDC knockdown (A549 cells [1]; 14 days, A549 cells with GLDC retroviral knockdown): significantly rescue the proliferation defect | effect on control A549 cells (A549 cells [1]; control A549 cells): little effect

CN(Cc1cnc2nc(N)nc(N)c2n1)c1ccc(C(=O)N[C@@H](CCC(=O)O)C(=O)O)cc1 [methotrexate]
killing of transformed A549 cells (A549 cells [2]): killed transformed A549 cells much more effectively than either alone | GLDC-induced proliferation (colony formation) (HLF cells; HLF cells overexpressing GLDC, 8 days): specifically abrogated GLDC-induced proliferation | effect on control cells (HLF cells; control HLF cells): little effects | GLDC-induced proliferation (colony formation) (3T3 cells; 3T3 cells overexpressing GLDC, 8 days): specifically abrogated GLDC-induced proliferation | effect on control cells (3T3 cells; control 3T3 cells): little effects

NOCC(=O)O [Aminooxyacetate, (Aminooxy) acetate]
GLDC binding and inhibition of GLDC activity (GLDC [3]): binds to GLDC and inhibits GLDC activity | inhibition of aspartate aminotransferase or glutamate transaminases [4]: powerful inhibitor

CC(C[C@H](NC(=O)C(O)O)C(=O)N[C@H](C(=O)N[C@@H]1C(=O)N/C(=C/Cl)C(=O)N[C@H](C(=O)O)CC2=C(CC(O)C2=O)O[C@H]1C(C)C)[C@H](O)CCCN)C(Cl)Cl (some centres unmarked) [Victorin]
inhibition of GLDC expression (GLDC [5]): able to inhibit GLDC expression | tumour formation and cell proliferation (GLDC [5]): block or reduced tumour formation and cell proliferation
